What all share (type): cell-based
One assay deals with T1, hSMO WT (Homo sapiens, UniProt Q99835).
T1 construct: expressed in transfected cells; host or cells: SMO knock-out mouse embryonic fibroblasts (MEF SMO-/-), BacMam transduction
The experiment in a line: Human assay: Gli1 qPCR in MEF SMO-/- cells BacMam-transduced with hSMO WT. To be noted: mSHh-treated, 24 hours; for IC50: Gli1 inhibition by qPCR, read-out: Human WT pIC50 (converted); for Human WT % Inh: percentage Gli1 inhibition. How it is done:
(§1) Cell culture. All materials were purchased from Sigma-Aldrich, unless otherwise stated. SMO knock-out mouse embryonic fibroblasts (MEF^SMO−/−) were maintained in Dulbecco's modified Eagle's medium (DMEM)/high-glucose medium supplemented with 10% foetal bovine serum (FBS, Invitrogen), 50 U/mL penicillin and 5 mg/mL streptomycin (supplied as a mixture), 0.1 mMMEM Non-Essential Amino Acids (supplied as 100× solution, ThermoFisher) and 1 mM sodium pyruvate at 37° C. in a humidified 95% air/5% CO2 atmosphere.
(§2) BacMam transduction and compound treatment. MEF^SMO−/− cells were transduced with BacMam virus (MOI 1:10 in the presence of 4.2 mM valproic acid) containing either the hSMO WT or desired receptor variant sequence. Transduced cells were seeded at 6000 cells per well in a Poly-D-Lysine coated 384-well plate (Greiner) before the spent culture medium was removed on the following day and replaced with assay medium (OptiMEM (Gibco) supplemented with 50 U/mL penicillin and 5 mg/mL streptomycin (supplied as a mixture), 0.1 mMMEM Non-Essential Amino Acids (supplied as 100× solution, ThermoFisher), 1 mM sodium pyruvate and 10 mM HEPES) containing test compounds at 2.5× final assay concentrations. After 1 hour incubation, cells were treated with assay medium containing mSHh prepared at 2.5× of final assay concentrations specified in the text and incubated for a further 24 hours at 37° C. in a humidified 95% air/5% ° C.2 atmosphere prior to qPCR analysis.
(§3) Cell lysis and one-step qPCR. The Cells-to-CT™ 1-Step TaqMan® Kit was used in conjunction with TaqMan primer-probe assays for the detection of Gill (FAM, Mm00494654_m1) and Gusb (VIC, Mm01197698_m1) genes (all purchased from Life Technologies). Following 24 hours cell treatment, spent medium was removed and cells were washed with PBS before the application of lysis and stop solution as per manufacturer's instructions. The qPCR reactions were run in a 384-well PCR plate using master mix prepared according to manufacturer's instructions and cell lysate samples from treatment wells. Real-time PCR amplification was detected using the Bio-Rad CFX384 Touch PCR system. Four experimental replicates (two cell replicates and two qPCR replicates) were performed for each compound concentration tested. Real-time data were analysed using the CFX Maestro software (Bio-Rad) and obtained expression values were converted to percentage Gill inhibition by normalising to the average Gill expression of mSHh-treated control samples

The target of a further assay is T2, mouse SMO^D473H (Mus musculus, UniProt P56726, D477H).
T2 construct: expressed in transfected cells
T2 sequence (P56726 33-793 D477H): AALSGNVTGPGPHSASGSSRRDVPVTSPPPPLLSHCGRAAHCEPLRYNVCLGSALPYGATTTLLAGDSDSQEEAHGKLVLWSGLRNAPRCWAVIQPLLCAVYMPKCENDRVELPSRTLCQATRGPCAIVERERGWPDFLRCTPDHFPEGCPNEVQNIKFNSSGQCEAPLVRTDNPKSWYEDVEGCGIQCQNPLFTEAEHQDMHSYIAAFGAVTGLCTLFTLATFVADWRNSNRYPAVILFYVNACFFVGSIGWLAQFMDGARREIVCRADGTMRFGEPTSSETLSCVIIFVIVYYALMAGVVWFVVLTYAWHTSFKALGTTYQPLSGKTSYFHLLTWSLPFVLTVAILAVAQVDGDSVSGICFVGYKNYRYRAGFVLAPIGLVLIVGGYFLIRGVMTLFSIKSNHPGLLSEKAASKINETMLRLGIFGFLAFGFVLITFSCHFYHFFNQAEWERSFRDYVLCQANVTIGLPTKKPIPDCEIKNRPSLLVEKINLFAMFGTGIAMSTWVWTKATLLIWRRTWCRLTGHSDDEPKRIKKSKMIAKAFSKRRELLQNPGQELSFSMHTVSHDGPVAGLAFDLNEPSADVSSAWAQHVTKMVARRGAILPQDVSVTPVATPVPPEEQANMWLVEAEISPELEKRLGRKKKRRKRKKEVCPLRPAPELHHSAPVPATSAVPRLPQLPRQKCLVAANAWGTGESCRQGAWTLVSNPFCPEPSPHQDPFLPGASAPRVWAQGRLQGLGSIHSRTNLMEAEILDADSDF
Put plainly: Mouse assay: Gli1 qPCR in MEF cells stably expressing mouse SMO D473H. To be noted: mSHh-treated, 24 hours; for IC50: Gli1 inhibition by qPCR, read-out: Mouse D473H pIC50 (converted); for Mouse D473H % Inh: percentage Gli1 inhibition. The method in brief:
(§4)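 MEFs stably expressing the SMO variant pre-treated with compound 1 h, then stimulated with mSHh and incubated 24 h at 37 °C. Gli1 mRNA quantified by one-step TaqMan qPCR with Gusb reference, four replicates per concentration; expressed as % Gli1 inhibition relative to mSHh-treated controls.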
On the technique in general: Real-time PCR tracks product formation cycle by cycle.

The next assay has as its target T3, mouse SMO^WT (Mus musculus, UniProt P56726).
T3 construct: expressed in transfected cells
Put plainly: Mouse assay: Gli1 qPCR in MEF cells stably expressing mouse SMO WT. The following applies: mSHh-treated, 24 hours; for IC50: Gli1 inhibition by qPCR, read-out: Mouse WT pIC50 (converted); for Mouse WT % Inh: percentage Gli1 inhibition. A digest of the protocol: as §4

In another assay the target is T4, mouse SMO^W535L (Mus musculus, UniProt P56726, W539L).
T4 construct: expressed in transfected cells
T4 sequence (P56726 33-793 W539L): as the sequence (P56726 33-793 D477H) above, with H445D, W507L counted along it
Put plainly: Mouse assay: Gli1 qPCR in MEF cells stably expressing mouse SMO W535L. The following applies: mSHh-treated, 24 hours; for IC50: Gli1 inhibition by qPCR, read-out: Mouse W535L pIC50 (converted); for Mouse W535L % Inh: percentage Gli1 inhibition. The method in brief:
as §4

The next assay addresses T5, human SMO W535L (Homo sapiens, UniProt Q99835, W535L).
T5 construct: expressed in transfected cells; host or cells: SMO knock-out mouse embryonic fibroblasts (MEF SMO-/-), BacMam transduction
Put plainly: Human assay: Gli1 qPCR in MEF SMO-/- cells BacMam-transduced with hSMO W535L variant. To be noted: mSHh-treated, 24 hours; for IC50: Gli1 inhibition by qPCR, read-out: Human W535L pIC50 (converted); for Human W535L % Inh: percentage Gli1 inhibition. How it is done: as §1, §2, §3

In a further assay the target is T6, human SMO D473H (Homo sapiens, UniProt Q99835, D473H).
T6 construct: expressed in transfected cells; host or cells: SMO knock-out mouse embryonic fibroblasts (MEF SMO-/-), BacMam transduction
T6 sequence (Q99835 28-787 D473H): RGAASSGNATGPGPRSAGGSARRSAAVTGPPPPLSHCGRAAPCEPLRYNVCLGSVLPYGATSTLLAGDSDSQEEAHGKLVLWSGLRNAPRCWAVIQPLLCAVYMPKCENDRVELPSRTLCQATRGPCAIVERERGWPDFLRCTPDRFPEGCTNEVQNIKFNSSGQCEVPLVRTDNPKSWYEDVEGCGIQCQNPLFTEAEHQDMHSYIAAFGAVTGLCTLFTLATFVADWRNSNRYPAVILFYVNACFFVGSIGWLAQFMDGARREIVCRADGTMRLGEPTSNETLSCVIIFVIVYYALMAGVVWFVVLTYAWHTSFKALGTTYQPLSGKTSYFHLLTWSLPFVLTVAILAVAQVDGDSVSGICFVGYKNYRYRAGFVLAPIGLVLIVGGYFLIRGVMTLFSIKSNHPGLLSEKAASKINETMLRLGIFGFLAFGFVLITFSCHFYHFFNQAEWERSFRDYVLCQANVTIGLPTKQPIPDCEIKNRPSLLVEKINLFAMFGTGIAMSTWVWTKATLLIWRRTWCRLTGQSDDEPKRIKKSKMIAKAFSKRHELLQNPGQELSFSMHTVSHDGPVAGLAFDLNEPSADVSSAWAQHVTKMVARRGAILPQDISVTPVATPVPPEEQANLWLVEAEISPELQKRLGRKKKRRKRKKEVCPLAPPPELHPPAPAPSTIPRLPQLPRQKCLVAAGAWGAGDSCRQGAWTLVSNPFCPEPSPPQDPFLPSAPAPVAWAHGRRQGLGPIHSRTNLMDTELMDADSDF
Put plainly: Human assay: Gli1 qPCR in MEF SMO-/- cells BacMam-transduced with hSMO D473H variant. To be noted: mSHh-treated, 24 hours; for IC50: Gli1 inhibition by qPCR, read-out: Human D473H pIC50 (converted); for Human D473H % Inh: percentage Gli1 inhibition. How it is done: Cell culture. All materials were purchased from Sigma-Aldrich, unless otherwise stated.
as §2, with “concentrations.” for “concentrations. After 1 hour incubation, cells were treated with assay medium containing mSHh prepared at 2.5× of final assay concentrations specified in the text and incubated for a further 24 hours at 37° C. in a humidified 95% air/5% ° C.2 atmosphere prior to qPCR analysis.”
as §3

Each structure is given as a SMILES string.

T3 sequence (P56726 33-793): as the sequence (P56726 33-793 D477H) above, with H445D counted along it
T1 sequence (Q99835 28-787): as the sequence (Q99835 28-787 D473H) above, with H446D counted along it
T5 sequence (Q99835 28-787 W535L): as the sequence (Q99835 28-787 D473H) above, with H446D, W508L counted along it

Regarding `Cc1oc(-c2ccc(NC(=O)c3cccc(CN4CCS(=O)(=O)CC4)c3)cc2)nc1C1CC1` [Example 4-2, N-[4-(4-Cyclopropyl-5-methyl-1,3-oxazol-2-yl)phenyl]-3-[(1,1-dioxo-1,4-thiazinan-4-yl)methyl]benzamide], at hSMO WT, the IC50 is 0.501 nM and the “Human WT % Inh” value amounted to 97.8%. For the same compound, at mouse SMO^D473H, the IC50 is 2.51 nM and the “Mouse D473H % Inh” value is reported as 98.4%. Further, at mouse SMO^WT, the IC50 is 0.631 nM and the “Mouse WT % Inh” value stood at 97.5%. Besides, on mouse SMO^W535L, the IC50 is 15.8 nM and the “Mouse W535L % Inh” value was 75.3%. Besides, at human SMO W535L, the IC50 was 25.1 nM and the “Human W535L % Inh” value was found to be 104.6%. For the same compound, on human SMO D473H, the IC50 was 31.6 nM and the “Human D473H % Inh” value stood at 104.2%.

Take `O=C(Nc1ccc(-c2noc(Cc3ccc(F)cc3)n2)cc1)c1cccc(CN2CCS(=O)(=O)CC2)c1` [Example 4-17, 3-[(1,1-Dioxo-1,4-thiazinan-4-yl)methyl]-N-[4-[5-[(4-fluorophenyl)methyl]-1,2,4-oxadiazol-3-yl]phenyl]benzamide]: on hSMO WT, the IC50 was 0.794 nM and the “Human WT % Inh” value is recorded as 99.3%. Further, at mouse SMO^D473H, the IC50 is 7.94 nM and the “Mouse D473H % Inh” value is 97.4%. In addition, on mouse SMO^WT, the IC50 was 2 nM and the “Mouse WT % Inh” value was found to be 97.2%. Moreover, at mouse SMO^W535L, the IC50 was 6.31 nM and the “Mouse W535L % Inh” value was 68.6%. Further, on human SMO W535L, the IC50 was 20 nM and the “Human W535L % Inh” value stood at 102.7%. At human SMO D473H, the IC50 is 39.8 nM and the “Human D473H % Inh” value was determined as 114.2%.

For `Cc1c(-c2ccc(NC(=O)c3ccc(Cl)c(CN4CCS(=O)(=O)CC4)c3)cc2)nn(C)c1C1CC1` [Example 4-26, 4-Chloro-N-[4-(5-cyclopropyl-1,4-dimethylpyrazol-3-yl)phenyl]-3-[(1,1-dioxo-1,4-thiazinan-4-yl)methyl]benzamide], on hSMO WT, the IC50 was 0.794 nM and the “Human WT % Inh” value is reported as 99.2%. Moreover, on mouse SMO^D473H, the IC50 was 6.31 nM and the “Mouse D473H % Inh” value is 97.6%. At mouse SMO^WT, the IC50 is 0.794 nM and the “Mouse WT % Inh” value is 97.0%. For the same compound, on mouse SMO^W535L, the IC50 is 5.01 nM and the “Mouse W535L % Inh” value came to 58.6%. On human SMO W535L, the IC50 is 6.31 nM and the “Human W535L % Inh” value is given as 92.5%. On human SMO D473H, the IC50 is 63.1 nM and the “Human D473H % Inh” value is recorded as 111.9%.

`O=C(Nc1ccc(-c2cc(C3CC3)n[nH]2)cc1)c1cccc(CN2CCS(=O)(=O)CC2)c1` [Example 4-19, N-[4-(5-Cyclopropyl-1H-pyrazol-3-yl)phenyl]-3-[(1,1-dioxo-1,4-thiazinan-4-yl)methyl]benzamide]: at hSMO WT, the IC50 is 3.16 nM and the “Human WT % Inh” value is listed as 95.4%. For the same compound, on mouse SMO^D473H, the IC50 was 15.8 nM and the “Mouse D473H % Inh” value was determined as 97.7%. Moreover, on mouse SMO^WT, the IC50 was 5.01 nM and the “Mouse WT % Inh” value is recorded as 96.8%. Also, on mouse SMO^W535L, the IC50 was 10 nM and the “Mouse W535L % Inh” value is listed as 59.5%. Besides, at human SMO W535L, the IC50 is 12.6 nM and the “Human W535L % Inh” value stood at 86.3%. On human SMO D473H, the IC50 is 100 nM and the “Human D473H % Inh” value is reported as 107.1%.

Consider `Cc1c(-c2ccc(NC(=O)c3ccc(Cl)c(CN4CCS(=O)(=O)CC4)c3)cc2)n[nH]c1C1CC1` [Example 4-22, 4-chloro-N-[4-(5-cyclopropyl-4-methyl-1H-pyrazol-3-yl)phenyl]-3-[(1,1-dioxo-1,4-thiazinan-4-yl)methyl]benzamide], for which, on hSMO WT, the IC50 was 1.26 nM and the “Human WT % Inh” value is recorded as 98.6%. Also, at mouse SMO^D473H, the IC50 is 5.01 nM and the “Mouse D473H % Inh” value is 97.6%. Further, at mouse SMO^WT, the IC50 is 2 nM and the “Mouse WT % Inh” value is 97.0%. Moreover, on mouse SMO^W535L, the IC50 was 3.98 nM and the “Mouse W535L % Inh” value is given as 49.2%. At human SMO W535L, the IC50 is 15.8 nM and the “Human W535L % Inh” value is 89.9%. Besides, at human SMO D473H, the IC50 is 100 nM and the “Human D473H % Inh” value was 111.1%.

Consider `O=C(Nc1ccc(-c2nc(C3CCCC3)n[nH]2)cc1)c1cccc(CN2CCS(=O)(=O)CC2)c1` [Example 3-5, N-[4-(3-Cyclopentyl-1H-1,2,4-triazol-5-yl)phenyl]-3-[(1,1-dioxo-1,4-thiazinan-4-yl)methyl]benzamide], for which, at hSMO WT, the IC50 was 2 nM and the “Human WT % Inh” value turned out to be 83.4%. Besides, at mouse SMO^D473H, the IC50 is 50.1 nM and the “Mouse D473H % Inh” value is on record as 96.7%. Also, at mouse SMO^WT, the IC50 was 10 nM and the “Mouse WT % Inh” value came out at 96.6%. Besides, at mouse SMO^W535L, the IC50 is 15.8 nM and the “Mouse W535L % Inh” value was determined as 42.2%. In addition, at human SMO W535L, the IC50 is 2.51 nM and the “Human W535L % Inh” value amounted to 75.4%. For the same compound, on human SMO D473H, the IC50 was 251 nM and the “Human D473H % Inh” value amounted to 88.3%.

For the origin of these results see patent US20250136559A1, “SMO MODULATOR COMPOUNDS” (OMASS THERAPEUTICS LIMITED, priority 2022, published 2025).
